In ChEMBL document CHEMBL5055685, “Discovery of the First Potent IDO1/IDO2 Dual Inhibitors: A Promising Strategy for Cancer Immunotherapy” (J Med Chem, 2021):
Calls of active or inactive are those of the source. The calls are words filed in the database; no cut-off is given here.

Tests used:
[1] = AUC (0 to t) in Sprague-Dawley rat at 50 mg/kg, po; type: ADME, organism-based; parameters: dose 50 mg/kg, route po; conditions: in vivo
[2] = Protein binding in Beagle dog plasma assessed as fraction unbound by equilibrium dialysis; type: ADME, cell-free, Canis lupus familiaris
[3] = Protein binding in Sprague-Dawley rat plasma assessed as fraction unbound by equilibrium dialysis; type: ADME, cell-free
[4] = Protein binding in Sprague-Dawley rat plasma by equilibrium dialysis; type: ADME, cell-free; conditions: read-out: PPB (converted)
[5] = Protein binding in ICR mouse plasma assessed as fraction unbound by equilibrium dialysis; type: ADME, cell-free
CT26 = test: Antitumor activity against mouse CT26 cells implanted in BALB/c mouse assessed as tumor growth inhibition at 50 mg/kg, ip bid for 28 days by vernier caliper method relative to control; type: functional; conditions: CT26, 672 h, time 28 day, read-out: TGI
Mus musculus = test: Toxicity in BALB/c mouse implanted with mouse CT26 cells assessed as adverse effect at 50 mg/kg, ip bid for 28 days; type: organism-based; conditions: in vivo, 672 h, time 28 day
HCT-116 [6] = test: Antitumor immunity in BALB/c mouse xenografted with human HCT-116 cells assessed as increase in CD80 expression in CD11c+ cells by propidium iodide staining based flow cytometry analysis (reference value: 79.8 %); type: functional
HCT-116 [7] = test: Antitumor immunity in BALB/c mouse xenografted with human HCT-116 cells assessed as late Treg cells in tumor-draining lymph nodes by propidium iodide staining based flow cytometry analysis (reference value: 18.3 %); type: functional
[8] = target: RAC-alpha serine/threonine-protein kinase (Homo sapiens) (UniProt P31749); test: Inhibition of AKT1 (unknown origin) at 1 uM
RAC-alpha serine/threonine-protein kinase (Homo sapiens), sequence (P31749 whole entry): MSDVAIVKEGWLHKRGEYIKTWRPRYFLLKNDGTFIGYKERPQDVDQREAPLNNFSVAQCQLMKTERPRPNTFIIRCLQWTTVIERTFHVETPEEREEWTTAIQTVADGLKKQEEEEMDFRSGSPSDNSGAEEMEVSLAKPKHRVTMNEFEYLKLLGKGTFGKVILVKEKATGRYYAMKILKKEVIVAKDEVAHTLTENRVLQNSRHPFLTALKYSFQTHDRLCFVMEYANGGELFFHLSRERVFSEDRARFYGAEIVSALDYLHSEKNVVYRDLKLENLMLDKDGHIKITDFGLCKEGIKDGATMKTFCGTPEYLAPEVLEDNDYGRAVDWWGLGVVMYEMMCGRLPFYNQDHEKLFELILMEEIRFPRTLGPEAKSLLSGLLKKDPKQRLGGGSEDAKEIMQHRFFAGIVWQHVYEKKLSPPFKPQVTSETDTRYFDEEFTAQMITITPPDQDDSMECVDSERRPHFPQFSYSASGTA

[9] = target: TGF-beta receptor type-1 (Homo sapiens) (UniProt P36897); test: Inhibition of ALK5 (unknown origin) at 1 uM
[10] = target: CDK2/Cyclin A2 (Homo sapiens) (UniProt P24941+P20248); test: Inhibition of CDK2/cyclin-A (unknown origin) at 1 uM; type: protein-complex assay
[11] = target: CDK3/Cyclin E (Homo sapiens) (UniProt P24864+Q00526); test: Inhibition of CDK3/cyclin-E (unknown origin) at 1 uM; type: protein-complex assay
[12] = target: Dual specificity tyrosine-phosphorylation-regulated kinase 1A (Homo sapiens) (UniProt Q13627); test: Inhibition of DYRK1A (unknown origin) at 1 uM
[13] = target: Dual specificity tyrosine-phosphorylation-regulated kinase 3 (Homo sapiens) (UniProt O43781); test: Inhibition of DYRK3 (unknown origin) at 1 uM
[14] = target: Epidermal growth factor receptor (Homo sapiens) (UniProt P00533); test: Inhibition of EGFR (unknown origin) at 1 uM
[15] = target: Ephrin type-A receptor 1 (Homo sapiens) (UniProt P21709); test: Inhibition of EPHA1 (unknown origin) at 1 uM
[16] = target: Ephrin type-A receptor 2 (Homo sapiens) (UniProt P29317); test: Inhibition of EPHA2 (unknown origin) at 1 uM
[17] = target: Ephrin type-A receptor 4 (Homo sapiens) (UniProt P54764); test: Inhibition of EPHA4 (unknown origin) at 1 uM
[18] = target: Mitogen-activated protein kinase kinase kinase kinase 3 (Homo sapiens) (UniProt Q8IVH8); test: Inhibition of GLK (unknown origin) at 1 uM
[19] = target: G protein-coupled receptor kinase 3 (Homo sapiens) (UniProt P35626); test: Inhibition of GRK3 (unknown origin) at 1 uM
[20] = target: Homeodomain-interacting protein kinase 3 (Homo sapiens) (UniProt Q9H422); test: Inhibition of HIPK3 (unknown origin) at 1 uM
[21] = target: Homeodomain-interacting protein kinase 4 (Homo sapiens) (UniProt Q8NE63); test: Inhibition of HIPK4 (unknown origin) at 1 uM
Homeodomain-interacting protein kinase 4 (Homo sapiens), sequence (Q8NE63 whole entry): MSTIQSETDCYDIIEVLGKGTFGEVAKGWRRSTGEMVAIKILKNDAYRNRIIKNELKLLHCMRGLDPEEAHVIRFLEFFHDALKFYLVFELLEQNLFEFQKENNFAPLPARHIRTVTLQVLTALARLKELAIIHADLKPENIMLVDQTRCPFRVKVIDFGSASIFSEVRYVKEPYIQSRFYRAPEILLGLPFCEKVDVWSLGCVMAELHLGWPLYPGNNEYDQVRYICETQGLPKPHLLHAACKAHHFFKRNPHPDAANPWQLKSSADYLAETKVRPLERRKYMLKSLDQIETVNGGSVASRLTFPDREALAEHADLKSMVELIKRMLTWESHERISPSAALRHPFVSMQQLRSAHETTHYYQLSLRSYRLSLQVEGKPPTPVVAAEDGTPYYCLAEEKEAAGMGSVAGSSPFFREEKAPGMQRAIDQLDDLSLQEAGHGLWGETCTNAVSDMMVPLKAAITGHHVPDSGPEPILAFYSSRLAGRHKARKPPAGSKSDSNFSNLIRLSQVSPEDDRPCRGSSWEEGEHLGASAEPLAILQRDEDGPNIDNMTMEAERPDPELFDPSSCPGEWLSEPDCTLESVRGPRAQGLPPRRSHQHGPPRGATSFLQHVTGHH

[22] = target: Inhibitor of nuclear factor kappa-B kinase subunit epsilon (Homo sapiens) (UniProt Q14164); test: Inhibition of IKKepsilon (unknown origin) at 1 uM
[23] = target: Interleukin-1 receptor-associated kinase 4 (Homo sapiens) (UniProt Q9NWZ3); test: Inhibition of IRAK4 (unknown origin) at 1 uM
Interleukin-1 receptor-associated kinase 4 (Homo sapiens), sequence (Q9NWZ3 whole entry): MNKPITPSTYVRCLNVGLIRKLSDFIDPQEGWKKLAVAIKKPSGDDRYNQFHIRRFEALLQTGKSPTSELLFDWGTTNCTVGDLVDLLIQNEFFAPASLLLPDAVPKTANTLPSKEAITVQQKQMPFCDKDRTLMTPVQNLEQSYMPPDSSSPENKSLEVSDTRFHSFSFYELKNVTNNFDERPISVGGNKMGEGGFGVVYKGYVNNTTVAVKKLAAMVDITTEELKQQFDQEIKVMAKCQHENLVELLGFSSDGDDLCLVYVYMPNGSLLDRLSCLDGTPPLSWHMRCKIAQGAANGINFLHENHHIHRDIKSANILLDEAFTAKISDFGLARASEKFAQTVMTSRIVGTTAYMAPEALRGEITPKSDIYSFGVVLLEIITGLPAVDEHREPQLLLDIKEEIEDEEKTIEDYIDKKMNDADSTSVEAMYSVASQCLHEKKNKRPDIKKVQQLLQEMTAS

[24] = target: Serine/threonine-protein kinase 10 (Homo sapiens) (UniProt O94804); test: Inhibition of LOK (unknown origin) at 1 uM
[25] = target: Serine/threonine-protein kinase MARK2 (Homo sapiens) (UniProt Q7KZI7); test: Inhibition of MARK2 (unknown origin) at 1 uM
[26] = target: MAP/microtubule affinity-regulating kinase 3 (Homo sapiens) (UniProt P27448); test: Inhibition of MARK3 (unknown origin) at 1 uM
MAP/microtubule affinity-regulating kinase 3 (Homo sapiens), sequence (P27448 whole entry, looked up): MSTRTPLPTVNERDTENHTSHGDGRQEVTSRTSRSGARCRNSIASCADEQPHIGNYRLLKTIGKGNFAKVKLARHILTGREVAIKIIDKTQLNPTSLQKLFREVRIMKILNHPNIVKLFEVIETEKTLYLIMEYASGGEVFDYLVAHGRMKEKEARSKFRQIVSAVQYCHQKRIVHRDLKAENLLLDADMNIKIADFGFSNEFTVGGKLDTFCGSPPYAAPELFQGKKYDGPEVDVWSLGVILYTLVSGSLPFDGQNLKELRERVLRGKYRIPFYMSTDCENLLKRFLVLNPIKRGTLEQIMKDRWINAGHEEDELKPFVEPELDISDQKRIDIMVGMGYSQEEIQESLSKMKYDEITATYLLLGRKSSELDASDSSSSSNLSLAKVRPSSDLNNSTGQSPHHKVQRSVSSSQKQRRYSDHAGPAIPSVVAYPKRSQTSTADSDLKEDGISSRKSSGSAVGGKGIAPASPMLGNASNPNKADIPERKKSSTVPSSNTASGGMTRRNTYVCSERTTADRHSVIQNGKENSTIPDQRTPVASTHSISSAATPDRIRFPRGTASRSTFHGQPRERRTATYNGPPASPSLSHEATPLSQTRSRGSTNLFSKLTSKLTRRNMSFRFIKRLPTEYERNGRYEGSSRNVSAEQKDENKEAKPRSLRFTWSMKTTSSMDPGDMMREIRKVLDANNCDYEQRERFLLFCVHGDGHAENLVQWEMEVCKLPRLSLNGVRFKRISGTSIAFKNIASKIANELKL

[27] = target: Dual specificity mitogen-activated protein kinase kinase 5 (Homo sapiens) (UniProt Q13163); test: Inhibition of MEK5 (unknown origin) at 1 uM
[28] = target: Maternal embryonic leucine zipper kinase (Homo sapiens) (UniProt Q14680); test: Inhibition of MELK (unknown origin) at 1 uM
Homo sapiens = species: Homo sapiens; test: Inhibition of MLCK (unknown origin) at 1 uM
[29] = target: Mitogen-activated protein kinase kinase kinase 21 (Homo sapiens) (UniProt Q5TCX8); test: Inhibition of MLK4 (unknown origin)at 1 uM
Mitogen-activated protein kinase kinase kinase 21 (Homo sapiens), sequence (Q5TCX8 whole entry): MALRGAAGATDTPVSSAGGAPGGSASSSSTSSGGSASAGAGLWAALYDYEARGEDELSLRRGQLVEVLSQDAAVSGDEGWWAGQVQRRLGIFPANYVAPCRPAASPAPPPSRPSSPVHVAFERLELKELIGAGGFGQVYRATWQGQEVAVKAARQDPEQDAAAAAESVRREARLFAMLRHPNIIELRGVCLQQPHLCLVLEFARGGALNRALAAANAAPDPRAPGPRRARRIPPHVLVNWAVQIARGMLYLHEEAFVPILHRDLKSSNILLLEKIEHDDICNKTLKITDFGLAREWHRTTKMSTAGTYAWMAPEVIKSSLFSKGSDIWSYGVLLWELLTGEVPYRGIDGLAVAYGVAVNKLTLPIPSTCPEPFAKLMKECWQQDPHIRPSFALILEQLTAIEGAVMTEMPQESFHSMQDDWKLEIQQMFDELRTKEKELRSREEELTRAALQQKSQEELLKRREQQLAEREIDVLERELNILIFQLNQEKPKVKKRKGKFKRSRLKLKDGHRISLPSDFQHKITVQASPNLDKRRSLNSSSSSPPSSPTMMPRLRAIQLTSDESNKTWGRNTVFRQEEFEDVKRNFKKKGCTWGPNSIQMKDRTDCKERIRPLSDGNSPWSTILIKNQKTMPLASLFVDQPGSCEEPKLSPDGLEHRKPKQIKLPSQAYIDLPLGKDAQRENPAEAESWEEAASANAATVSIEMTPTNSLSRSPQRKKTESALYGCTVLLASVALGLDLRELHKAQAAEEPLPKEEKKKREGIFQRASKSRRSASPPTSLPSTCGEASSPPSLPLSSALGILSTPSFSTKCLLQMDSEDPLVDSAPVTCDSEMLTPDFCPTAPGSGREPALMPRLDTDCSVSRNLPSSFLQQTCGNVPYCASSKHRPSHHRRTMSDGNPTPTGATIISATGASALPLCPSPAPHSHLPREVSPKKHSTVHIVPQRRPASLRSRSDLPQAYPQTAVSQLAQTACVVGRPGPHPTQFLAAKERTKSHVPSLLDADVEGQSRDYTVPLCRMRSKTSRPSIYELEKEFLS

[30] = target: Myosin light chain kinase family member 4 (Homo sapiens) (UniProt Q86YV6); test: Inhibition of MYLK4 (unknown origin) at 1 uM
Myosin light chain kinase family member 4 (Homo sapiens), sequence (Q86YV6 whole entry): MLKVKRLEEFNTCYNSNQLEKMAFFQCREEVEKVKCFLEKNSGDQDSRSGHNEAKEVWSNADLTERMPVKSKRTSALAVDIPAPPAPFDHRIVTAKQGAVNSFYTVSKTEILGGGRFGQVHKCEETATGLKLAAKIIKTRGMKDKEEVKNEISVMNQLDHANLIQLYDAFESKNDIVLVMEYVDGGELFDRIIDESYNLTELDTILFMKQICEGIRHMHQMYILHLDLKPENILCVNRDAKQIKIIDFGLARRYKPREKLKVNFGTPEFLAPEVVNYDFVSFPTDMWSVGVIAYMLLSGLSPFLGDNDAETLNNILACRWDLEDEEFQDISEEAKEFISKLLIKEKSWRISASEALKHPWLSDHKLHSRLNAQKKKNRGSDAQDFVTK

[31] = target: Serine/threonine-protein kinase N1 (Homo sapiens) (UniProt Q16512); test: Inhibition of PKN1 (unknown origin) at 1 uM
[32] = target: Serine/threonine-protein kinase N3 (Homo sapiens) (UniProt Q6P5Z2); test: Inhibition of PKN3 (unknown origin) at 1 uM
[33] = target: Rho-associated protein kinase 2 (Homo sapiens) (UniProt O75116); test: Inhibition of ROCK2 (unknown origin) at 1 uM
[34] = target: Ribosomal protein S6 kinase alpha-3 (Homo sapiens) (UniProt P51812); test: Inhibition of RSK2 (unknown origin) at 1 uM
[35] = target: Serine/threonine-protein kinase 33 (Homo sapiens) (UniProt Q9BYT3); test: Inhibition of STK33 (unknown origin) at 1 uM
[36] = target: Serine/threonine-protein kinase TAO2 (Homo sapiens) (UniProt Q9UL54); test: Inhibition of TAOK2 (unknown origin) at 1 uM
Serine/threonine-protein kinase TAO2 (Homo sapiens), sequence (Q9UL54 whole entry): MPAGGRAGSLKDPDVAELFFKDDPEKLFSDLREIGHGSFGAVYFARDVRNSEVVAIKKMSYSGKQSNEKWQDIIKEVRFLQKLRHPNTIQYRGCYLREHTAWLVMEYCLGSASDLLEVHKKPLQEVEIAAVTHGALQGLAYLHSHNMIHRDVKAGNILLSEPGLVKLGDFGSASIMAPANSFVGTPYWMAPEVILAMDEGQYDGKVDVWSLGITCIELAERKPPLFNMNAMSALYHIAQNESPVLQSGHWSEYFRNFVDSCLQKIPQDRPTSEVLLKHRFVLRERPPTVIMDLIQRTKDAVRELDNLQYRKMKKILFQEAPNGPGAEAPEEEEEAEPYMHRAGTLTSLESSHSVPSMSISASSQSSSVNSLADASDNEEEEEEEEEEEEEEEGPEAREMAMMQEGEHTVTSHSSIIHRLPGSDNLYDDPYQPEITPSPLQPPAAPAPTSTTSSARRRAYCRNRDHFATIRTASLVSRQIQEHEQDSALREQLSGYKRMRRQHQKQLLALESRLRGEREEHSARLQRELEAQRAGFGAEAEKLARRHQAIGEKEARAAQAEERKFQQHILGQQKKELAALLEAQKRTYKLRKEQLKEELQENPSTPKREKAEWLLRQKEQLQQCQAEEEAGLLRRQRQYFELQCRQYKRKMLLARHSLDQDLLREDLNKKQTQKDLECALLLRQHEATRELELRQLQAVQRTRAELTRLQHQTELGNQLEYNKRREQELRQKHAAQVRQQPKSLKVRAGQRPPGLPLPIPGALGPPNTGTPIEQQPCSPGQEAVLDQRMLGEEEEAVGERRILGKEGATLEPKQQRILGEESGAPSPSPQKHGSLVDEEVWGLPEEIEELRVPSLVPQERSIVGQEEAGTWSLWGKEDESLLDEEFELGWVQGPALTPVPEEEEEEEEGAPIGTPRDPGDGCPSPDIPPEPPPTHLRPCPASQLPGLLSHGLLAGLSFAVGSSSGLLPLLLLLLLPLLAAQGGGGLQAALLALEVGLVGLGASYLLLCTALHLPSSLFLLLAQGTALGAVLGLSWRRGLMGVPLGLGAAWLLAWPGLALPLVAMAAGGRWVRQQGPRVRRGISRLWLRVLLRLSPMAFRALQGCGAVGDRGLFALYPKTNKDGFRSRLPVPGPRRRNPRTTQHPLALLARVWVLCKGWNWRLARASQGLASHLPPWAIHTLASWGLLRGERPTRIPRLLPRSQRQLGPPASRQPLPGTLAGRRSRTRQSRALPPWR

[37] = target: Dual specificity testis-specific protein kinase 1 (Homo sapiens) (UniProt Q15569); test: Inhibition of TESK1 (unknown origin) at 1 uM
[38] = target: Non-receptor tyrosine-protein kinase TNK1 (Homo sapiens) (UniProt Q13470); test: Inhibition of TNK1 (unknown origin) at 1 uM
[39] = target: Tyrosine-protein kinase Yes (Homo sapiens) (UniProt P07947); test: Inhibition of YES (unknown origin) at 1 uM
[40] = target: Mitogen-activated protein kinase kinase kinase 20 (Homo sapiens) (UniProt Q9NYL2); test: Inhibition of ZAK (unknown origin) at 1 uM
[41] = target: Mitogen-activated protein kinase kinase kinase kinase 2 (Homo sapiens) (UniProt Q12851); test: Inhibition of GCK (unknown origin) at 1 uM

OCCOCc1cn(CCNc2nonc2/C(=N/O)Nc2ccc(F)c(Br)c2)nn1
AUC(0-t) [1]: 3640 ng·h/mL | fraction unbound [2]: 0.0498 | fraction unbound [3]: 0.0672 | fraction unbound [4]: 0.0672 | fraction unbound [5]: 0.0968 | inhibition in vivo at 50 mg/kg (CT26): 69.7% | Activity (Mus musculus): Non-Toxic | Activity (HCT-116 [6]): 75.8% | Activity (HCT-116 [7]): 7.31% | inhibition [8]: inactive | inhibition [9]: inactive | inhibition [10]: inactive | inhibition [11]: inactive | inhibition [12]: inactive | inhibition [13]: inactive | inhibition [14]: inactive | inhibition [15]: inactive | inhibition [16]: inactive | inhibition [17]: inactive | inhibition [18]: inactive | inhibition [19]: inactive | inhibition [20]: inactive | inhibition [21]: inactive | inhibition [22]: inactive | inhibition [23]: inactive | inhibition [24]: inactive | inhibition [25]: inactive | inhibition [26]: inactive | inhibition [27]: inactive | inhibition [28]: inactive | inhibition (Homo sapiens): inactive | inhibition [29]: inactive | inhibition [30]: inactive | inhibition [31]: inactive | inhibition [32]: inactive | inhibition [33]: inactive | inhibition [34]: inactive | inhibition [35]: inactive | inhibition [36]: inactive | inhibition [37]: inactive | inhibition [38]: inactive | inhibition [39]: inactive | inhibition [40]: inactive | inhibition [41]: inactive
